The numbers were not newly measured in US11807855B2, “Selection vectors and methods of selecting eukaryotic host cells” (Novartis AG, priority 2013, dated 2023), which cites them from elsewhere.

Broadly, the IC50 is the concentration that gives 50% inhibition. As usually defined, the Ki is the dissociation constant of the complex between target and ligand, obtained from inhibition or displacement. As a reminder, the Kd is the concentration at which binding is half-saturated. A word on the Km: it is the concentration of substrate that gives half-maximal velocity.

In data set [1] the target is A49L mutated folate receptor alpha (Homo sapiens, UniProt P15328, A74L). Conditions: A49L mutant.
Sequence of A49L mutated folate receptor alpha (P15328 25-234 A74L): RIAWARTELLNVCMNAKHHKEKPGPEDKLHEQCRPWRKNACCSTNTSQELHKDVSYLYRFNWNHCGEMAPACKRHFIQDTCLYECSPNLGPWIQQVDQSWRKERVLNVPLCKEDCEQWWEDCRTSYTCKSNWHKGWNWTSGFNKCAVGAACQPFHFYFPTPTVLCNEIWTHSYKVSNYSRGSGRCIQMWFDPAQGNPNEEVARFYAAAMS
The target in data set [2] is wild type folate receptor alpha (Homo sapiens, UniProt P15328).
Sequence of wild type folate receptor alpha (P15328 25-234): as the sequence (P15328 25-234 A74L) above, with L50A counted along it
The target of data set [3] is FR alpha and FR beta.
In data set [4] the target is T1, RFC (Homo sapiens, UniProt P41440).
T1 sequence (P41440 1-591): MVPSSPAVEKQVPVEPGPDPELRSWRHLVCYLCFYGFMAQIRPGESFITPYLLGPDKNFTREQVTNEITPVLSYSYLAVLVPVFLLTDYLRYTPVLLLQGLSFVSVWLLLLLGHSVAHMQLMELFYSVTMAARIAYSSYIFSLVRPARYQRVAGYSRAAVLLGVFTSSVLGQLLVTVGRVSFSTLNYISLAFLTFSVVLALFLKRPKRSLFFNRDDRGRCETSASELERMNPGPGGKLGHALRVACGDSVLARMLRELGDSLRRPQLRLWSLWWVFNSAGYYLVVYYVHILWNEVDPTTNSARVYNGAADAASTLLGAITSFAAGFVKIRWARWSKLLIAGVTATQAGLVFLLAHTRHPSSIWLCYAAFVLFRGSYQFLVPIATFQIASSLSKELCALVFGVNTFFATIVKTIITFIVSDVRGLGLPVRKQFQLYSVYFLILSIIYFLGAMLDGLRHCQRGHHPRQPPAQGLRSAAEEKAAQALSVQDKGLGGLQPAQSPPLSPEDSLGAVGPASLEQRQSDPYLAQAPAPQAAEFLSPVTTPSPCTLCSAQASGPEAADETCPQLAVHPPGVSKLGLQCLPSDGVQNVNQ

Some results are limits rather than exact numbers.

Regarding `CN1c2c(nc(N)[nH]c2=O)NCC1CNc1ccc(C(=O)N[C@@H](CCC(=O)O)C(=O)O)cc1` (single isomer, unassigned) [6S diastereoisomer of 5-methyltetrahydrofolate, 5-methyltetrahydrofolate], the IC50 in data set [1] is 179 nM; in data set [2] it was 2.9 nM.

Consider `Nc1nc2c(c(=O)[nH]1)CC(CCc1ccc(C(=O)N[C@@H](CCC(=O)O)C(=O)O)cc1)CN2` (stereo partly shown) [5,10-dideazatetrahydrofolic acid], for which the Ki in data set [3] (using [3H]folic acid as a substrate) is 0.4 to 1.3 nM.

In the case of `C#CCN(c1ccc(C(=O)N[C@@H](CCC(=O)N[C@H](CCC(=O)O)C(=O)O)C(=O)O)cc1)[C@H]1CCc2cc3nc(CO)[nH]c(=O)c3cc21` [BGC945], the Kd in data set [3] is 1 nM.

With `CN(Cc1cnc2nc(N)nc(N)c2n1)c1ccc(C(=O)N[C@@H](CCC(=O)O)C(=O)O)cc1` [MTX, methotrexate], the Kd in data set [3] is greater than 100 nM.

`Nc1nc2ncc(CNc3ccc(C(=O)N[C@@H](CCC(=O)O)C(=O)O)cc3)nc2c(=O)[nH]1` [folic acid]: the Km in data set [4] is 200 to 400 µM. Further, in data set [3], the Kd was 0.1 to 1 nM.
